The subject of data set [1] is Caco-2 cells. Briefly: Toxicity in Caco-2 cells. Type of data set: cell-based. The conditions noted are these: tested at 2-400 μM.
The test system of data set [2] is C. elegans strain N2. Briefly: Lifespan assay in worms. Type of data set: in vivo. The source says: The ability of pharmacological or other interventions to extend the lifespan of different organisms is often conserved. For the instant example, the disclosed compounds can be tested for their ability to extend the lifespan of the worm model system Caenorhabditis elegans (N2 strain) [see, e.g., PMID: 19488025]. The organisms can be first exposed to the compounds as adults, 2-3 days after the egg stage until their death, on solid media containing the compounds at the desired concentration. The temperature can be kept constant at 20° C. throughout the assays. The bacteria used as food for the worms (Escherichia coli strain OP-50) can be dead (e.g., killed by lethal doses of ultraviolet radiation) to ensure that any effects on lifespan are not indirect, mediated through bacterial metabolism.
The assays were performed at 20° C. using C. elegans strain N2 and a bacterial strain (OP50) commonly used as food for the worms. Briefly, the assays were performed on solid agar nematode growth media (NGM) plates prepared fresh before each experiment. The bacterial lawn was exposed twice to a UV dose of 120 mJ/cm^2 using a UVC-515 Ultraviolet Multilinker (Ultra-Lum, Inc.). Streaking these UV-exposed bacteria to fresh LB agar plates (1% w/v tryptone, 0.5% w/v yeast extract, 1% w/v sodium chloride) produced no visible colonies. Methotrexate, or the ATIC inhibitor, was first dissolved in DMSO and then added to the media used to prepare the plates after autoclaving (the media were kept in a 50° C. water bath until the plates were poured). Mock-treated control plates contained only DMSO. At the start of each experiment, a sufficient number of eggs were collected from plates without any drugs and then placed on plates containing the indicated doses of each compound tested. After hatching and progression to the adult stage, animals were transferred to new plates (marked as the start of the lifespan assay) containing the drug tested and fluorodeoxyuridine (FUDR; dissolved in water), added at 50 μM to block hatching of new animals. The plates were scored at least every other day until all the worms died. If an animal responded to gentle touch, it was scored as alive, otherwise a death was recorded, and the animal was removed from the plate. Worms were transferred to fresh plates as needed (e.g., if there was evidence of microbial contamination, dryness/cracks on the agar surface, consumption of the bacterial lawn, or hatching of new animals that escaped the FUDR block). The reported lifespans were compiled from several independent experiments done over several months (9-10 months for the methotrexate experiments and 4-5 months for the ATIC inhibitor), each scored by multiple individuals (4-5 persons per experiment). No experiments were excluded from the analysis.

Consider `CC(=O)N1CCC(C(=O)N2CCN3C(=O)c4cc(-c5ccccc5)ccc4NC(=O)C3C2)CC1` (stereo not shown) [MPOL_B_1, 2-(1-acetylpiperidine-4-carbonyl)-8-phenyl-1,3,4,12a-tetrahydrobenzo[e]pyrazino[1,2-a][1,4]diazepine-6,12(2H,11H)-dione], for which the “toxicity” value in data set [1] was “not toxic”. In addition, the “lifespan effect relative to the effect of methotrexate” value in data set [2] (same worm assay) is 2-3 times. In data set [2] (worms, 50 and 100 μM), the “extension of maximal lifespan” value was around 30% and the “extension of mean lifespan” value is recorded as around 30%.

(Values after patent publication US20250002492A1, “COMPOSITIONS OF FOLATE ABSORPTION INHIBITORS AND METHODS THEREOF” (THE TEXAS A&M UNIVERSITY SYSTEM, priority 2023, published 2025).)
